Counter-ions that a name gives are not always drawn.

For the first assay, the system named is serum TNFα. Briefly: In vivo LPS-induced TNFα production (serum TNFα, ELISA). On the set-up: species or system Male BALB/c mice. The conditions noted are these: 5.0 ng/kg (so in the source), orally 90 min before LPS (7.5 mg/kg i.p.), serum 2 h after LPS. On the procedure: 2. In vivo LPS-induced TNFα production Male BALB/c mice (18-20 g) were obtained from Harlan-Nossan (Correzzana, Italy); Lipopolysaccharide (LPS) from S. enteritidis (code L-6011) was from Sigma (St. Louis, Mo.); Dexamethasone (Soldesam) from Laboratorio Farmacologico Milanese (Caronno P., Italy).
Mice were treated i.p. with LPS (S. enteritidis, 7.5 mg/kg). Dexamethasone was administered i.p. 30 min. before LPS. Compounds were administered orally 90 min. before LPS. Two hours after LPS administration the anaesthetized animals were sacrificed, blood was collected by cardiac puncture and allowed to coagulate. Serum TNFα was measured by ELISA with "mouse Reagent Sets" (Genzyme, Cambridge, Mass.) according to the manufacturer's instructions and using mouse recombinant TNFα as standard.
On the technique in general: An ELISA detects its analyte on a solid surface through an enzyme-linked reagent.
Take `CCN(CC)Cc1ccc2cc(COC(=O)Nc3ccc(C(=O)NO)cc3)ccc2c1` [Example 12, hydrochloride]: the “Inhibition (%)” value is given as 64.3% and the TNFα is 407 pg/mL.

The assay is the same for the next values; noted with them: 0.5 mg/kg, orally 90 min before LPS (7.5 mg/kg i.p.), serum 2 h after LPS.
Regarding `CCN(CC)Cc1ccc2cc(COC(=O)Nc3ccc(C(=O)NO)cc3)ccc2c1` [Example 12, hydrochloride], the “Inhibition (%)” value is 55.0% and the TNFα came to 514 pg/mL.

Still in this assay, the particulars now being: 30 mg/kg, i.p. 30 min before LPS (7.5 mg/kg i.p.), serum 2 h after LPS.
For `C[C@@H]1C[C@H]2[C@@H]3CCC4=CC(=O)C=C[C@]4(C)[C@@]3(F)[C@@H](O)C[C@]2(C)[C@@]1(O)C(=O)CO` [Dexamethasone, reference compound], the “Inhibition (%)” value amounted to 90.2% and the TNFα worked out at 112 pg/mL.

For the next assay, the system named is human IL-1β. Nature of the assay: In vitro cytokines production test (LPS-stimulated human PBMC, IL-1β ELISA). Format: cell-based. The conditions noted are these: 10 ng/ml LPS, 60 min pretreatment, 20 hours culture, read-out: IC50 (inhibition of IL-1β production). On the procedure: 1. In vitro cytokines production test
The compounds of the invention were tested by in particular on the production of human IL-1β. Mononuclear cells (PBMC) were prepared from peripheral blood ("buffy coat") from healthy donors, by centrifugation over density gradient Ficoll-Hypaque (Biochrom KG, Berlin, Germany). The cells (2,5×10^6 for ml) were cultured at 37° C. under humid atmosphere containing 5% CO2 in 96-wells plates (Nunc) at a final volume of 200 μl. […] The production of cytokines was induced by stimulating the cells with 10 ng/ ml of LPS (lipopolysaccharide) from E. coli serotype 055:B5 (Sigma Chemical Co., St. Louis. Mo.). The cells were pretreated with the compounds of the intention dissolved in DMSO (final concentration: 0.05% […]) for 60 minutes. The compounds and LPS were present during the whole 20 hours of culture. As the negative control, not-stimulated cells were used. At the end of the test, supernatants were collected and the IL-1β production was tested by a specific ELISA assay ("sandwich-type antigen capture", R & D System, Minneapolis, Minn.; all of the tests were carried out in duplicate). A goat polyclonal serum specific for human IL-1β was used, purified by affinity, to cover the 96-wells microtitration plates (Nunc). After washing, the wells were incubated for 2 hours with 3% of boyine serum albumine (BSA) in buffered saline. Recombinant human IL-1β was used to obtain a standard curve for each test and the supernatant samples were diluted to 1/20 and 1/80 with PBS+0.1% of BSA. The plates were then incubated at 4° C. overnight. After washing, the secondary antibody was added, i.e. an anti- human lL-1β murine monoclonal antibody. After incubation and washing, a goat anti-murine Ig-G polyclonal antibody peroxidase-conjugated (Zymed) was added, then the chromogenic substrate tetramethylbenzidine dichloride (Sigma). The reaction was stopped with 4N H2 SO4 and the absorbance at 450 nm was measured with an automatic spectrophotometer (Perkin-Elmer).
In general, IC50 refers to the concentration that gives 50% inhibition. As for `O=C(CCCCc1ccccc1)Nc1ccc(C(=O)NO)cc1` [Example 1, 4-(5-Phenylpentanamido)benzohydroxamic acid], the IC50 is 305 nM. Still for that read-out and setting: the result for `O=C(NCc1ccc(C(=O)NO)cc1)OCC(c1ccccc1)c1ccccc1` [Example 2, 4-[2,2-(Diphenyl)ethoxycarbamoylmethyl]benzohydroxamic acid] reads 163 nM; that for `O=C(Nc1ccc(C(=O)NO)cc1)OCCC12CC3CC(CC(C3)C1)C2` [Example 3], 531 nM. Same read-out and setting: the result for `O=C(Nc1ccc(C(=O)NO)cc1)OCc1cccc2ccccc12` [Example 4] reads 28 nM; that for `O=C(Nc1ccc(C(=O)NO)cc1)OCC1CCc2ccccc2C1` (stereo not shown) [Example 5], 137 nM. With `O=C(Nc1ccc(C(=O)NO)cc1)OCCCc1ccccc1` [Example 6], the IC50 worked out at 43 nM.

As for `O=C(Nc1ccc(C(=O)NO)cc1)OCc1ccc2ccccc2c1` [Example 7], the IC50 is 12 nM. As for `O=C(Nc1ccc(C(=O)NO)cc1)OC/C=C/c1ccccc1` [Example 8], the IC50 was 29 nM. In the case of `O=C(Nc1ccc(C(=O)NO)cc1)OC/C=C\c1ccccc1` [Example 9], the IC50 was 72 nM. Same read-out and setting: the result for `O=C(Nc1ccc(C(=O)NO)cc1)OCCC(c1ccccc1)c1ccccc1` [Example 10] reads 101 nM. Regarding `CCN(CC)Cc1ccc2cc(COC(=O)Nc3ccc(C(=O)NO)cc3)ccc2c1` [Example 12, hydrochloride], the IC50 is 96 nM. As to `CCCN(CCC)Cc1ccc2cc(COC(=O)Nc3ccc(C(=O)NO)cc3)ccc2c1` [Example 13, hydrochloride], the IC50 stood at 166 nM.

Turning to `CCCCN(CCCC)Cc1ccc2cc(COC(=O)Nc3ccc(C(=O)NO)cc3)ccc2c1` [Example 14, hydrochloride], the IC50 worked out at 382 nM. On to `CCN(CC)Cc1ccc(COC(=O)Nc2ccc(C(=O)NO)cc2)c2ccccc12` [Example 15, hydrochloride], for which the IC50 was found to be 14 nM. With `CCN(CC)Cc1ccc2cc(CNC(=O)Nc3ccc(C(=O)NO)cc3)ccc2c1` [Example 16, hydrochloride], the IC50 was determined as 10 nM.

For `CC(C)N1Cc2ccccc2CC1COC(=O)NCc1ccc(C(=O)NO)cc1` (stereo not shown) [Example 17, 4-[N-isopropyl-1,2,3,4-tetrahydroisoquinol-3-yl)methyloxycarbamoylmethyl]benzohydroxamic acid hydrochloride], the IC50 is 21 nM.

The record behind these values is patent publication US6034096A, “Compounds with anti-inflammatory and immunosuppressive activities” (Italfarmaco S.p.A., priority 1996, dated 2000).
